The text below walks through data of PMC8652005 (2021).

In test [1] the test system is add_P1 (RNA, riboswitch) GGGAAGAUAUAAUCCUAAUGAUAUGGUUUGGGAGUUUCUACCAAGAGCCUUAAACUCUUGAUUAUCUUCUCUGUCGCUUUAUCCCAAAUUUUAUAAAGAGAAGACUCAUGAAU
The test can be described thus: ITC. The following applies: 100 mM KCl, 10 mM MgCl2; 10 mM HEPES, pH 7.5, room temperature.

The subject of test [2] is add_FL (RNA, riboswitch) GGGAAGAAACGCUUCAUAUAAUCCUAAUGAUAUGGUUUGGGAGUUUCUACCAAGAGCCUUAAACUCUUGAUUAUGAAGUCUGUCGCUUUAUCCCAAAUUUUAUAAAGAGAAGACUCAUGAAU
The test can be described thus: ITC. The following applies: 100 mM KCl, 10 mM MgCl2; 10 mM HEPES, pH 7.5, room temperature.

As to `Nc1ncnc2[nH]cnc12`, the dissociation constant Kd (in general, the equilibrium constant for the complex coming apart) in test [1] is listed as 67.6 ± 0.53 nM; in test [2], 90.0 ± 0.96 nM.
